In the NIST ThermoML archive (doi:10.1016/j.jct.2017.07.014):

Legend:
[1] = refractive index (other wavelength) (dimensionless); xn = mol fraction of the nth substance listed; details: 108 kPa, Liquid, Wavelength=632.8 nm, minimum deviation method, x2 = 0
[2] = refractive index (other wavelength) (dimensionless); details: 108 kPa, Liquid, Wavelength=632.8 nm, minimum deviation method

CCO [ethanol] + CCCCn1cc[n+](C)c1.F[P-](F)(F)(F)(F)F
[1]
Details | refractive index
315.24 K | 1.3509
317.21 K | 1.3501
319.26 K | 1.3492
321.31 K | 1.3483
323.3 K | 1.3474
325.39 K | 1.3465

CCCCn1cc[n+](C)c1.F[P-](F)(F)(F)(F)F [1-butyl-3-methylimidazolium hexafluorophosphate]
[2]
Details | refractive index
315.21 K | 1.4038
317.26 K | 1.4032
319.23 K | 1.4027
321.47 K | 1.4021
323.47 K | 1.4016
325.4 K | 1.4011

CCO [ethanol]
[2]
Details | refractive index
315.24 K | 1.3509
317.21 K | 1.3501
319.26 K | 1.3492
321.31 K | 1.3483
323.3 K | 1.3474
325.39 K | 1.3465
